The source made the active and inactive calls.
Columns and labels:
[1] = intracellular Trypanosoma cruzi inhibitors in host cells – cell-based, plate reader, cherry-pick samples, set 3, dose response (AID 651818); type: functional;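 also: compounds incubated with infected cells for about four days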
[2] = HEK-293T viability loss after treatment – luminescence, T-cell screen hits, cytotoxicity control for TCR NF-kB inhibitor project, dose response (AID 489026); type: functional, cell-based;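 also: cells exposed to compound about 14 hours before the viability readout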
[3] = biological target: Cytochrome P450 2C9 (Homo sapiens, UniProt P11712)
Cytochrome P450 2C9, sequence (P11712 whole entry): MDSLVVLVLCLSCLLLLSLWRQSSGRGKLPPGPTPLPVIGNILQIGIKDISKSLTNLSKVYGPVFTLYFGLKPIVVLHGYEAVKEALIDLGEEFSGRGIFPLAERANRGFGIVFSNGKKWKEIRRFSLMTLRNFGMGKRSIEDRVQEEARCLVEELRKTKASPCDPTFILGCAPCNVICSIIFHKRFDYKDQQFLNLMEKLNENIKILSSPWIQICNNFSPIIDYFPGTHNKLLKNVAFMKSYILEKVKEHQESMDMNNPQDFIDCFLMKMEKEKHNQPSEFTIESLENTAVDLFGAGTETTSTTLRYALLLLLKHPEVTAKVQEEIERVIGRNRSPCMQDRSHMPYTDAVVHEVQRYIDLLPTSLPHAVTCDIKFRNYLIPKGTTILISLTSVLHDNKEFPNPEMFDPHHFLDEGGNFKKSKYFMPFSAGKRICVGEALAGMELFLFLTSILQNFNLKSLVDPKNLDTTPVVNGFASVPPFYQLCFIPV

[4] = biological target: T1, Microphthalmia-associated transcription factor (Homo sapiens, UniProt O75030); test: reducers of TRPM1 reporter luminescence, concentration series – cell-based, SK-MEL-5, cherry-picked, set 3, MITF inhibitor project, dose response (AID 493073); type: functional;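 also: SK-MEL-5 melanoma cells with luciferase driven by the MITF target TRPM1 promoter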
T1 sequence (O75030 whole entry): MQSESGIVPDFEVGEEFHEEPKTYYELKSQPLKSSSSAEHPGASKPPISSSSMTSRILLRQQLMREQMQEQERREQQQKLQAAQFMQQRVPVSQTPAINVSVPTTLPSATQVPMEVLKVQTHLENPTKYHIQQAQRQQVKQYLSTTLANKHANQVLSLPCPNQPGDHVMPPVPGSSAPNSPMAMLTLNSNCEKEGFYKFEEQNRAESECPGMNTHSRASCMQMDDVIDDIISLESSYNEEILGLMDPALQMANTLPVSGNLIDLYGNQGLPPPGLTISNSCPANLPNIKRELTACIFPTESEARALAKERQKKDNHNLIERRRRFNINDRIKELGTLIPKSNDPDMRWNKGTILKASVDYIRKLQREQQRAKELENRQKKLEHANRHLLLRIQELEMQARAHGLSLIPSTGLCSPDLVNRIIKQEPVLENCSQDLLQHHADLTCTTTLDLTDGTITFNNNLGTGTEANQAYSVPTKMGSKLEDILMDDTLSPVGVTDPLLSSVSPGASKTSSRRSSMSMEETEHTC

[5] = test system: H4; test: Luminescence Cell-Based Dose Response HTS to Identify Activators of 5'UTR Stem-Loop Driven Prion Protein mRNA Translation in H4 Neuroglioblastoma Cells. [Related pubchem assays: 1829 (Project Summary), 1814 (Primary HTS)]; type: functional; settings: Homo sapiens
[6] = Luminescence Cell-Based Dose Confirmation HTS to Identify Activators of 5'UTR Stem-Loop Driven Alpha-Synuclein mRNA Translation in H4 Neuroglioblastoma Cells. [Related pubchem assays: 1829 (Project Summary), 1814 (Primary HTS)]; type: functional
[7] = Luminescence Cell-Based Dose Response HTS to Identify Activators of Luciferase Translation or Activity in H4 […] Cells. [Related pubchem assays: 1829 (Project Summary), 1814 (Primary HTS)]; type: functional
[8] = biological target: T2, Cytochrome P450 3A4 (Homo sapiens, UniProt P08684); settings: Potency
T2 sequence (P08684 whole entry): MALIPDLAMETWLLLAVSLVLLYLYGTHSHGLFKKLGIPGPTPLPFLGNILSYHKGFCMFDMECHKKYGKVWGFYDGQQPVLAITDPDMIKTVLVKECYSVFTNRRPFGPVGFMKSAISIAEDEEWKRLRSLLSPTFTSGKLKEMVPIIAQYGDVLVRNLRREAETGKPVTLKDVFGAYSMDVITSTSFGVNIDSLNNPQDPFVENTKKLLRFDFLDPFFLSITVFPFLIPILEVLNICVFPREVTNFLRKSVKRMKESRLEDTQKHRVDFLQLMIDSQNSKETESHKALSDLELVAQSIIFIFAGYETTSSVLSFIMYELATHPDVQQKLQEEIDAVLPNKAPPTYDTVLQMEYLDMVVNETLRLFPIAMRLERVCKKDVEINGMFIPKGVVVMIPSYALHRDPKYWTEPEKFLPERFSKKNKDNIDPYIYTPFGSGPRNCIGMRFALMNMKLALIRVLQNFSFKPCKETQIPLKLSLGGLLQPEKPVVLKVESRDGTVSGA

[9] = NIH-3T3 fibroblast cytotoxicity, dose response, cytotoxicity control, cell-based, fluorescence, Alamar Blue, secondary assay (AID 2327); type: functional;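 also: NIH-3T3 mouse fibroblasts cultured with fluconazole at 8 µg/mL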
[10] = fluconazole-exposed Candida albicans growth modulators – fluorescence, retest, confirmation (AID 2467); type: functional, cell-based
[11] = biological target: Cytochrome P450 2C19 (Homo sapiens, UniProt P33261); test: Cytochrome panel assay with activity outcomes. Panel member name: p450-cyp2c19 Compounds with AC50 equal or less than 10 uM are considered active; type: functional; settings: read-out: AC50
Cytochrome P450 2C19, sequence (P33261 whole entry): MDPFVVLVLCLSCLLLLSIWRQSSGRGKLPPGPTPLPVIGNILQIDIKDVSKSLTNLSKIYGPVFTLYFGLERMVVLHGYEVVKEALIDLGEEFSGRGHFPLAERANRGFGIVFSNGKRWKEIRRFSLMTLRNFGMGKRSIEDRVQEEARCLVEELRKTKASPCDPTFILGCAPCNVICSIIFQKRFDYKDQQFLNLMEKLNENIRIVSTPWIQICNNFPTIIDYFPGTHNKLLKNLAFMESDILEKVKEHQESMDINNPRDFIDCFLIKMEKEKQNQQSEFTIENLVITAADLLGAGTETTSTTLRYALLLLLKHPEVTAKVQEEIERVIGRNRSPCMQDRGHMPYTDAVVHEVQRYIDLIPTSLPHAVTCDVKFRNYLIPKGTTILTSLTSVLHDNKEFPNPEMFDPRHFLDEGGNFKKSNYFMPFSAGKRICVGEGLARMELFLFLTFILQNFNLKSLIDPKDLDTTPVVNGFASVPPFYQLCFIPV

[12] = biological target: T2, Cytochrome P450 3A4
[13] = cells; type: functional, cell-based
[14] = cells; type: functional, cell-based; remark: listed apart in the source

In the case of `C[C@@H]1CN([C@H](C)CO)C(=O)Cc2cc(NS(=O)(=O)c3ccc(F)cc3)ccc2O[C@H]1CN(C)Cc1ccc(Cl)c(Cl)c1`, the AC50 [1] was 2.26 µM (active).
For `C[C@@H]1CN([C@H](C)CO)C(=O)Cc2cc(NC(=O)CCC(F)(F)F)ccc2O[C@@H]1CN(C)Cc1ccc(Oc2ccccc2)cc1`, the AC50 [1] was 2.81 µM (active).
For `Cc1cc(NC(=O)COC(=O)c2ccc(S(=O)(=O)N3CCCc4ccccc43)cc2)no1`, the IC50 [2] was > 80 µM (inactive).
For `C[C@@H]1CCCCO[C@@H](CN(C)C(=O)Nc2ccc(C(F)(F)F)cc2)[C@@H](C)CN([C@H](C)CO)C(=O)c2cc(NC(=O)Nc3ccc4c(c3)OCO4)ccc2O1`, the AC50 [1] was 4.09 µM (active).
In the case of `CCOc1c2ccc(C(=O)NC3CCCc4ccccc43)cc2nn1C` (stereo unspecified), the AC50 [3] was “inconclusive”.
For `Cc1nc(Sc2nnnn2C)c2c3c(sc2n1)CCC3`, the IC50 [2] was > 80 µM (inactive) and the AC50 [4] was 4.98 µM (active).
With `COc1cc(C(=O)OCC(=O)Nc2cc(C)on2)ccc1OCc1ccccc1Cl` the EC50 [5] was 20.6 µM (active), the EC50 [6] was 7.95 µM (active) and the EC50 [7] was 4.54 µM (active).
In the case of `COC1C=CO[C@@]2(C)Oc3c(C)c(O)c4c(O)c(c5c(nc6cc(C)ccn65)c4c3C2=O)NC(=O)/C(C)=C\C=CC(C)C(O)[C@@H](C)C(O)C(C)[C@@H](OC(C)=O)C1C` (stereo partly specified), the AC50 [8] was 7.94 µM (inconclusive).
In the case of `Cc1scc(C(=O)N/N=C/c2ccc([N+](=O)[O-])o2)c1C`, the EC50 [9] was > 150 µM (inactive), the EC50 [10] was 1.48 µM (active) and the AC50 [4] was 2.19 µM (active).
For `CC[C@H](CO)NCCN[C@@H](CC)CO`, the AC50 [3] was “inconclusive”.
In the case of `C[C@@H]1CN([C@H](C)CO)C(=O)Cc2cc(NC(=O)Nc3cccc4ccccc34)ccc2O[C@H]1CN(C)Cc1ccccc1`, the AC50 [1] was 6.25 µM (active).
For `S=c1ccss1` [DITHIOLETHIONE], the AC50 [8] was 10 µM (inconclusive).
In the case of `CCN1C(=O)C(O)(C2COC(C)(C)CC2=O)c2ccccc21` (stereo unspecified), the AC50 [11] was 25.1 µM (inconclusive) and the AC50 [3] was “inconclusive”.
For `COc1cccc(C(=O)Nc2ccc(N3CCN(C(=O)c4ccco4)CC3)cc2)c1`, the EC50 [5] was > 120 µM (not active), the EC50 [6] was > 120 µM (not active) and the EC50 [7] was 8.46 µM (active).
For `C[C@@H]1CCCCO[C@@H](CN(C)C(=O)c2ccccc2)[C@@H](C)CN([C@H](C)CO)C(=O)c2cc(NC(=O)Nc3ccc(C(F)(F)F)cc3)ccc2O1`, the AC50 [1] was 6.48 µM (active).
With `CN1C(=O)/C(=C(/C#N)c2nc3ccccc3[nH]2)c2ccccc21` the AC50 [11] was 11.2 µM (inconclusive) and the AC50 [3] was “inconclusive”.
With `Cn1c(-c2ccc(-c3ccccc3)cc2)cnc1S` the EC50 [5] was 15.6 µM (active), the EC50 [6] was 7.14 µM (active) and the EC50 [7] was 7.75 µM (active).
With `COC(=O)c1c(C)[nH]c(C(=O)OCc2ccc(F)cc2)c1C` the EC50 [5] was 9.55 µM (active), the EC50 [6] was 0.115 µM (active) and the EC50 [7] was 23.8 µM (active).
With `Cc1c(Cl)cccc1NC(=O)C[C@H]1Sc2ccccc2NC1=O` the AC50 [12] was 3.98 µM (inconclusive), the AC50 [11] was 3.16 µM (inconclusive) and the AC50 [3] was “inconclusive”.
With `COc1ccc(NS(=O)(=O)c2cc(NC(=O)CNC(=O)c3cccc(OC)c3)ccc2C)cc1` the AC50 [4] was 11 µM (active).
With `O=C(Nc1ccccc1)O[C@@H]1C[C@H]2CCC(=O)N3CC[C@@H](C1)[C@@H]23` the EC50 [5] was 53.9 µM (active), the EC50 [6] was 0.39 µM (active) and the EC50 [7] was 40.9 µM (active).
In the case of `CCOC(=O)N1CCN(C(=O)CNCc2cccs2)CC1.O=C(O)C(=O)O`, the AC50 [3] was “inconclusive”.
With `O=C(NCC1CCCO1)c1cc(-c2ccccc2)on1` (stereo unspecified) the EC50 [5] was > 120 µM (not active), the EC50 [6] was 11.6 µM (active) and the EC50 [7] was 35.5 µM (active). The EC50 [13] was > 350 µM (not active) and the EC50 [14] was 17.2 µM (active).
With `CCN(CC)CCCC(C)n1c(-c2ccccc2)nc2c(N3CCOCC3)nc(C)nc21` (stereo unspecified) the AC50 [8] was 15.8 µM (inconclusive).
With `C[C@@H]1CN([C@@H](C)CO)C(=O)c2cccc(NC(=O)CCCCCC(=O)Nc3ccccc3N)c2O[C@H]1CN(C)CC1CC1` the AC50 [1] was 4.62 µM (active).
For `N#Cc1nn(-c2c(Cl)cc(C(F)(F)F)cc2Cl)c(N)c1[S+]([O-])C(F)(F)F` (stereo unspecified) [FIPRONIL], the AC50 [8] was 25.1 µM (inconclusive).
In the case of `C[C@@H]1CCCCO[C@@H](CN(C)Cc2ccc(C(F)(F)F)cc2)[C@@H](C)CN([C@H](C)CO)C(=O)c2cc(NC(=O)Nc3ccccc3)ccc2O1`, the AC50 [1] was 5.35 µM (active).
In the case of `CCCn1c(-c2ccc(F)cc2)nc2c(NCCN(C(C)C)C(C)C)nc(C)nc21`, the AC50 [8] was 10 µM (inconclusive).
For `C#CCCCCCCCCCCCC(O)CC(O)COC(C)=O` (stereo unspecified) [AVOCADYNE ACETATE], the AC50 [8] was 39.8 µM (inconclusive).
For `COC(=O)c1cccc(C23CC4(C2)[C@H](CN(Cc2ccc(C(F)(F)F)cc2)[C@@H]4c2ccccc2)C3c2ccc(Cl)nc2)c1` (stereo partly specified), the AC50 [8] was 3.98 µM (inconclusive).

Source: ChEMBL document CHEMBL1201862, “PubChem BioAssay data set” (2004)
